Legend:
[1] = tested on: recombinant human CFTR carrying the premature stop codon (PTC) mutation G542X; assay: CFTR-PTC mutant translation readthrough, Nanoluc tagged CFTR luminescence (G542X cell line); format: cell-based; conditions: in combination with G418, G542X cell line; for CFTR G542X ACTIVITY Fold 10 μM G-418: fold over 10 μM G-418; for EC50: 16HBE cells
Procedure, shortened: (§1)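 Readthrough is the 48 h compound-induced luminescence increase scaled to that of maximal G418 (125-250 μM). Compounds run from 50 μM final in 2-fold steps, ±10 μM G418, on 16HBE lines carrying Nanoluc-tagged CFTR G542X (extracellular loop 4 tag) or R1162X (C-terminal tag), with 3 μM VX-809 present.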

[2] = tested on: recombinant human CFTR carrying the premature stop codon (PTC) mutation R1162X; assay: CFTR-PTC mutant translation readthrough, Nanoluc tagged CFTR luminescence (R1162X cell line); format: cell-based; conditions: for CFTR R1162X ACTIVITY Fold 10 μM G-418: fold over 10 μM G-418, in combination with G418; for EC50: in combination with G418, 16HBE cells, read-out: CFTR R1162X ACTIVITY EC50
Procedure, shortened: as §1

EC50 [1] [nM] | EC50 [2] [nM] | Structure (SMILES) | CFTR G542X ACTIVITY Fold 10 μM G-418 [1] | CFTR R1162X ACTIVITY Fold 10 μM G-418 [2]
1000 to 10000 | 1000 to 10000 | NCc1cn(-c2ccc(OCc3c(Cl)cccc3Cl)cn2)nn1 [[1-[5-[(2,6-dichlorophenyl)methoxy]-2-pyridyl]triazol-4-yl]methanamine] | A′ (A′ = ≥10X) | A′ (A′ = ≥10X)
< 1000 | < 1000 | OCc1cn(-c2ccc(OCc3c(Cl)cccc3Cl)cn2)nn1 [[1-[5-[(2,6-dichlorophenyl)methoxy]-2-pyridyl]triazol-4-yl]methanol] | A′ (A′ = ≥10X) | A′ (A′ = ≥10X)
< 1000 | < 1000 | NCC1CCCN(c2ncc(OCc3c(Cl)cccc3Cl)cn2)C1 (stereo not shown) [[1-[5-[(2,6-dichlorophenyl)methoxy]pyrimidin-2-yl]-3-piperidyl]methanamine] | A′ (A′ = ≥10X) | A′ (A′ = ≥10X)
1000 to 10000 | 1000 to 10000 | OCC1CCCN(c2ncc(OCc3c(Cl)cccc3Cl)cn2)C1 (stereo not shown) [[1-[5-[(2,6-dichlorophenyl)methoxy]pyrimidin-2-yl]-3-piperidyl]methanol] | A′ (A′ = ≥10X) | A′ (A′ = ≥10X)
< 1000 | < 1000 | OCC1(F)CCN(c2ncc(OCc3c(Cl)cccc3Cl)cn2)CC1 [[1-[5-[(2,6-dichlorophenyl)methoxy]pyrimidin-2-yl]-4-fluoro-4-piperidyl]methanol] | A′ (A′ = ≥10X) | A′ (A′ = ≥10X)
< 1000 | 1000 to 10000 | OCc1ccn(-c2ncc(OCc3c(Cl)cccc3Cl)cn2)n1 [[1-[5-[(2,6-dichlorophenyl)methoxy]pyrimidin-2-yl]pyrazol-3-yl]methanol] | A′ (A′ = ≥10X) | A′ (A′ = ≥10X)
1000 to 10000 | 1000 to 10000 | OCc1cn(-c2ncc(OCc3c(Cl)cccc3Cl)cn2)nn1 [[1-[5-[(2,6-dichlorophenyl)methoxy]pyrimidin-2-yl]triazol-4-yl]methanol] | A′ (A′ = ≥10X) | A′ (A′ = ≥10X)
1000 to 10000 | 1000 to 10000 | Cc1cccc(C)c1COc1ccc(-n2ccc(CO)n2)nc1 [[1-[5-[(2,6-dimethylphenyl)methoxy]-2-pyridyl]pyrazol-3-yl]methanol] | A′ (A′ = ≥10X) | A′ (A′ = ≥10X)
1000 to 10000 | 1000 to 10000 | OCc1cnn(-c2ncc(OCc3c(Cl)cccc3Cl)cn2)n1 [[2-[5-[(2,6-dichlorophenyl)methoxy]pyrimidin-2-yl]triazol-4-yl]methanol] | A′ (A′ = ≥10X) | A′ (A′ = ≥10X)
1000 to 10000 | 1000 to 10000 | OCc1cc(-c2ccc(OCc3c(Cl)cccc3Cl)cc2)no1 [[3-[4-[(2,6-dichlorophenyl)methoxy]phenyl]isoxazol-5-yl]methanol] | A′ (A′ = ≥10X) | A′ (A′ = ≥10X)
1000 to 10000 | 1000 to 10000 | OCc1nc(-c2ccc(OCc3c(Cl)cccc3Cl)cn2)no1 [[3-[5-[(2,6-dichlorophenyl)methoxy]-2-pyridyl]-1,2,4-oxadiazol-5-yl]methanol] | A′ (A′ = ≥10X) | A′ (A′ = ≥10X)
< 1000 | 1000 to 10000 | OCc1cc(-c2ccc(OCc3c(Cl)cccc3Cl)cn2)no1 [[3-[5-[(2,6-dichlorophenyl)methoxy]-2-pyridyl]isoxazol-5-yl]methanol] | A′ (A′ = ≥10X) | A′ (A′ = ≥10X)
< 1000 | 1000 to 10000 | OCc1cc(-c2ncc(OCc3c(Cl)cccc3Cl)cn2)no1 [[3-[5-[(2,6-dichlorophenyl)methoxy]pyrimidin-2-yl]isoxazol-5-yl]methanol] | A′ (A′ = ≥10X) | A′ (A′ = ≥10X)
1000 to 10000 | 1000 to 10000 | OCC1CN(c2ccc(OCc3c(Cl)cccc3Cl)cc2)CCO1 (stereo not shown) [[4-[4-[(2,6-dichlorophenyl)methoxy]phenyl]morpholin-2-yl]methanol] | A′ (A′ = ≥10X) | A′ (A′ = ≥10X)
1000 to 10000 | 1000 to 10000 | OCc1nc(-c2ccc(OCc3c(Cl)cccc3Cl)cc2)co1 [[4-[4-[(2,6-dichlorophenyl)methoxy]phenyl]oxazol-2-yl]methanol] | A′ (A′ = ≥10X) | A′ (A′ = ≥10X)
< 1000 | < 1000 | CCc1cccc(C(F)(F)F)c1COc1ccc(N2CCOC(CO)C2)cc1 (stereo not shown) [[4-[4-[[2-ethyl-6-(trifluoromethyl)phenyl]methoxy]phenyl]morpholin-2-yl]methanol] | A′ (A′ = ≥10X) | A′ (A′ = ≥10X)
1000 to 10000 | 1000 to 10000 | OCC1CN(c2ccc(OCc3c(Cl)cccc3Cl)cn2)CCO1 (stereo not shown) [[4-[5-[(2,6-dichlorophenyl)methoxy]-2-pyridyl]morpholin-2-yl]methanol] | A′ (A′ = ≥10X) | A′ (A′ = ≥10X)
< 1000 | 1000 to 10000 | NCC1CN(c2ncc(OCc3c(Cl)cccc3Cl)cn2)CCO1 (stereo not shown) [[4-[5-[(2,6-dichlorophenyl)methoxy]pyrimidin-2-yl]morpholin-2-yl]methanamine] | A′ (A′ = ≥10X) | A′ (A′ = ≥10X)
< 1000 | 1000 to 10000 | OCC1CN(c2ncc(OCc3c(Cl)cccc3Cl)cn2)CCO1 (stereo not shown) [[4-[5-[(2,6-dichlorophenyl)methoxy]pyrimidin-2-yl]morpholin-2-yl]methanol] | A′ (A′ = ≥10X) | A′ (A′ = ≥10X)
1000 to 10000 | 1000 to 10000 | NC(=O)NCC1CN(c2ncc(OCc3c(Cl)cccc3Cl)cn2)CCO1 (stereo not shown) [[4-[5-[(2,6-dichlorophenyl)methoxy]pyrimidin-2-yl]morpholin-2-yl]methylurea] | A′ (A′ = ≥10X) | B′ (B′ = ≥5X to <10X)
1000 to 10000 | 1000 to 10000 | OCc1nc(-c2ncc(OCc3c(Cl)cccc3Cl)cn2)co1 [[4-[5-[(2,6-dichlorophenyl)methoxy]pyrimidin-2-yl]oxazol-2-yl]methanol] | A′ (A′ = ≥10X) | A′ (A′ = ≥10X)
1000 to 10000 | 1000 to 10000 | OCC1CN(c2ncc(OCc3c(Cl)cccc3Cl)cn2)CCN1 (stereo not shown) [[4-[5-[(2,6-dichlorophenyl)methoxy]pyrimidin-2-yl]piperazin-2-yl]methanol] | A′ (A′ = ≥10X) | A′ (A′ = ≥10X)
1000 to 10000 | 1000 to 10000 | Cc1cccc(C(F)(F)F)c1COc1cnc(N2CCS(=O)(=O)C(CO)C2)nc1 (stereo not shown) [[4-[5-[[2-methyl-6-(trifluoromethyl)phenyl]methoxy]pyrimidin] | A′ (A′ = ≥10X) | A′ (A′ = ≥10X)
< 1000 | < 1000 | OCc1nnc(-c2ccc(OCc3c(Cl)cccc3Cl)cc2)o1 [[5-[4-[(2,6-dichlorophenyl)methoxy]phenyl]-1,3,4-oxadiazol-2-yl]methanol] | A′ (A′ = ≥10X) | A′ (A′ = ≥10X)
1000 to 10000 | 1000 to 10000 | OCc1n[nH]c(-c2ccc(OCc3c(Cl)cccc3Cl)cn2)n1 [[5-[5-[(2,6-dichlorophenyl)methoxy]-2-pyridyl]-1H-1,2,4-triazol-3-yl]methanol] | B′ (B′ = ≥5X to <10X) | B′ (B′ = ≥5X to <10X)
1000 to 10000 | 1000 to 10000 | OC[C@H]1CN(c2ncc(OCc3c(Cl)cccc3Cl)cn2)CCO1 [[(2R)-4-[5-[(2,6-dichlorophenyl)methoxy]pyrimidin-2-yl]morpholin-2-yl]methanol] | A′ (A′ = ≥10X) | A′ (A′ = ≥10X)
< 1000 | < 1000 | OC[C@@H]1CN(c2ncc(OCc3c(Cl)cccc3Cl)cn2)CCO1 [[(2S)-4-[5-[(2,6-dichlorophenyl)methoxy]pyrimidin-2-yl]morpholin-2-yl]methanol] | A′ (A′ = ≥10X) | A′ (A′ = ≥10X)

Structure (SMILES) | EC50 [1] [nM] | EC50 [2] [nM] | CFTR G542X ACTIVITY Fold 10 μM G-418 [1] | CFTR R1162X ACTIVITY Fold 10 μM G-418 [2]
OCc1cn(-c2ncc(OCc3c(Cl)cccc3Cl)cn2)cn1 [[1-[5-[(2,6-dichlorophenyl)methoxy]pyrimidin-2-yl]imidazol-4-yl]methanol] | < 1000 | 1000 to 10000 | A′ (A′ = ≥10X) | A′ (A′ = ≥10X)

Reference: US20250228865A1, “COMPOUNDS FOR ENHANCING READ THROUGH OF GENES CONTAINING PREMATURE TERMINATION CODONS AND METHODS FOR MAKING AND USING THE SAME” (Sanofi US Services Inc., priority 2022, published 2025)
